In ChEMBL document CHEMBL1201862, “PubChem BioAssay data set” (2004):
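All cell lines were grown in 96-well plates and treated with compound for 48 hours. At the GI50, growth is halved.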 Calls of active or inactive are those of the source. Cut-off read from the data, not from the text of the source: active = GI50 up to about 1.1 µM and inactive = higher.

Legend:
Assay in all cases: NCI-60 cell line screen, 48 h
IGROV-1 = tested on: IGROV-1
HOP-92 = tested on: HOP-92
HCT-116 = tested on: HCT-116
Hs-578T = tested on: Hs-578T
CCRF-CEM = tested on: CCRF-CEM
SW-620 = tested on: SW-620
OVCAR-8 = tested on: OVCAR-8
K562 = tested on: K562
MCF7 = tested on: MCF7
UACC-62 = tested on: UACC-62
SF-539 = tested on: SF-539
TK-10 = tested on: TK-10
OVCAR-3 = tested on: OVCAR-3
ACHN = tested on: ACHN
NCI-H23 = tested on: NCI-H23
OVCAR-5 = tested on: OVCAR-5
SF-295 = tested on: SF-295
UO-31 = tested on: UO-31
UACC-257 = tested on: UACC-257
OVCAR-4 = tested on: OVCAR-4

Structure (SMILES) | GI50 (IGROV-1) | GI50 (HOP-92) | GI50 (HCT-116) | GI50 (Hs-578T) | GI50 (CCRF-CEM) | GI50 (SW-620) | GI50 (OVCAR-8) | GI50 (K562) | GI50 (MCF7) | GI50 (UACC-62) | GI50 (SF-539) | GI50 (TK-10) | GI50 (OVCAR-3) | GI50 (ACHN) | GI50 (NCI-H23) | GI50 (OVCAR-5) | GI50 (SF-295) | GI50 (UO-31) | GI50 (UACC-257) | GI50 (OVCAR-4)
COc1cc(N(C)C)c(OC)cc1C=C1C=CC=C1 | > 100 µM (inactive) | 61.8 µM (inactive) | 82.4 µM (inactive) | > 100 µM (inactive) | 54.1 µM (inactive) | > 100 µM (inactive) | > 100 µM (inactive) | 58.5 µM (inactive) | > 100 µM (inactive) | 82.4 µM (inactive) | > 100 µM (inactive) | > 100 µM (inactive) | > 100 µM (inactive) | > 100 µM (inactive) | > 100 µM (inactive) | > 100 µM (inactive) | > 100 µM (inactive) | > 100 µM (inactive) | – | –
Cn1cnc2c(sc3nc4ccccc4n32)c1=N | 22.6 µM (inactive) | > 100 µM (inactive) | > 100 µM (inactive) | 42.7 µM (inactive) | > 100 µM (inactive) | > 100 µM (inactive) | 41.5 µM (inactive) | – | > 100 µM (inactive) | > 100 µM (inactive) | > 100 µM (inactive) | > 100 µM (inactive) | > 100 µM (inactive) | > 100 µM (inactive) | > 100 µM (inactive) | > 100 µM (inactive) | 68.1 µM (inactive) | > 100 µM (inactive) | > 100 µM (inactive) | > 100 µM (inactive)
CC(N/N=C(\S)N1CCN(c2ccccn2)CC1)c1nccc2ccccc12 (stereo unspecified) | – | 0.957 µM (active) | – | 12.9 µM (inactive) | < 0.01 µM (active) | 0.316 µM (active) | 0.104 µM (active) | < 0.01 µM (active) | 1.07 µM (active) | 0.305 µM (active) | 0.646 µM (active) | 1.64 µM (inactive) | < 0.0121 µM (active) | 0.838 µM (active) | 1.79 µM (inactive) | 0.453 µM (active) | 1.3 µM (inactive) | 1.06 µM (active) | 0.0318 µM (active) | 0.678 µM (active)
CC(CCOc1ccc2ccc(=O)oc2c1)C1=CC(=O)C(C)(C)O1 (stereo unspecified) | 3.2 µM (inactive) | 3.56 µM (inactive) | 2.64 µM (inactive) | 2.38 µM (inactive) | 0.499 µM (active) | 1.92 µM (inactive) | 1.96 µM (inactive) | – | 3.61 µM (inactive) | 3.72 µM (inactive) | 1.69 µM (inactive) | 3.34 µM (inactive) | 3.22 µM (inactive) | 3.18 µM (inactive) | 2.81 µM (inactive) | 9.27 µM (inactive) | 3.94 µM (inactive) | 3.05 µM (inactive) | 6.73 µM (inactive) | 5.73 µM (inactive)
O=C1/C(=C\c2cccs2)Oc2ccccc21 | 26.7 µM (inactive) | 35.2 µM (inactive) | 60.4 µM (inactive) | 45.7 µM (inactive) | 57.7 µM (inactive) | > 100 µM (inactive) | 70.8 µM (inactive) | 74.5 µM (inactive) | 28.9 µM (inactive) | 75.2 µM (inactive) | – | 90.6 µM (inactive) | 24.9 µM (inactive) | 47.2 µM (inactive) | 40.6 µM (inactive) | > 100 µM (inactive) | 74 µM (inactive) | 33 µM (inactive) | 63.1 µM (inactive) | 31.5 µM (inactive)
C=C(CC(=O)Nc1ccc(C(=O)OC)o1)C(=O)OC | 23 µM (inactive) | 29.4 µM (inactive) | 29.4 µM (inactive) | 53.1 µM (inactive) | > 10 µM (inactive) | 22 µM (inactive) | 36.9 µM (inactive) | – | 17.9 µM (inactive) | 25.4 µM (inactive) | 17.3 µM (inactive) | 20.8 µM (inactive) | – | 18.7 µM (inactive) | 28 µM (inactive) | 17.1 µM (inactive) | 34.5 µM (inactive) | 20.6 µM (inactive) | 21.3 µM (inactive) | 30.7 µM (inactive)
Cc1nc(-c2cc3c(ccc4ccccc43)oc2=O)cs1 | 21.5 µM (inactive) | 30.2 µM (inactive) | > 100 µM (inactive) | 30.3 µM (inactive) | > 100 µM (inactive) | > 100 µM (inactive) | 35.5 µM (inactive) | > 100 µM (inactive) | > 100 µM (inactive) | 26 µM (inactive) | 43.3 µM (inactive) | 46.7 µM (inactive) | – | 63.7 µM (inactive) | – | > 100 µM (inactive) | 41.8 µM (inactive) | 46.3 µM (inactive) | > 100 µM (inactive) | 37.7 µM (inactive)
OC(CC(O)(C(F)(F)Cl)C(F)(F)Cl)c1ccccc1 (stereo unspecified) | 0.0258 µM (active) | > 10 µM (inactive) | > 10 µM (inactive) | > 10 µM (inactive) | > 10 µM (inactive) | > 10 µM (inactive) | > 10 µM (inactive) | > 10 µM (inactive) | > 10 µM (inactive) | > 10 µM (inactive) | > 10 µM (inactive) | > 10 µM (inactive) | > 10 µM (inactive) | > 10 µM (inactive) | > 10 µM (inactive) | > 10 µM (inactive) | > 10 µM (inactive) | – | > 10 µM (inactive) | > 10 µM (inactive)
COc1cccc(N(CN2C(=O)CCC2OC)C(C)=O)c1 (stereo unspecified) | – | > 100 µM (inactive) | > 100 µM (inactive) | > 100 µM (inactive) | > 100 µM (inactive) | > 100 µM (inactive) | > 100 µM (inactive) | > 100 µM (inactive) | > 100 µM (inactive) | > 100 µM (inactive) | > 100 µM (inactive) | > 100 µM (inactive) | > 100 µM (inactive) | > 100 µM (inactive) | > 100 µM (inactive) | > 100 µM (inactive) | > 100 µM (inactive) | > 100 µM (inactive) | > 100 µM (inactive) | > 100 µM (inactive)
O=C(Cc1nccc2c1[nH]c1ccccc12)OC1C#CCSCC#C/C=C\1 (stereo unspecified) | > 100 µM (inactive) | > 100 µM (inactive) | 50 µM (inactive) | > 100 µM (inactive) | 38.8 µM (inactive) | > 100 µM (inactive) | > 100 µM (inactive) | 43 µM (inactive) | > 100 µM (inactive) | > 100 µM (inactive) | > 100 µM (inactive) | > 100 µM (inactive) | 95.9 µM (inactive) | > 100 µM (inactive) | – | – | 87.9 µM (inactive) | 71.4 µM (inactive) | > 100 µM (inactive) | > 100 µM (inactive)
COC(=O)/C=C\C(C#N)(C#N)/N=C/c1ccc(Br)cc1 | 14.3 µM (inactive) | 1.99 µM (inactive) | 2.57 µM (inactive) | 17.6 µM (inactive) | 1.54 µM (inactive) | 2.76 µM (inactive) | 5.47 µM (inactive) | 3.4 µM (inactive) | 3.52 µM (inactive) | 11.3 µM (inactive) | – | 2.45 µM (inactive) | 12 µM (inactive) | 2.97 µM (inactive) | 14.9 µM (inactive) | 14.1 µM (inactive) | 18.2 µM (inactive) | 4.36 µM (inactive) | 14.8 µM (inactive) | 8.83 µM (inactive)
CC1(C)OC[C@H](COCOP2(=O)Oc3ccc4ccccc4c3-c3c(ccc4ccccc34)O2)O1 | 23 µM (inactive) | 14.6 µM (inactive) | 15 µM (inactive) | 47.5 µM (inactive) | 27.6 µM (inactive) | 15.3 µM (inactive) | 25.2 µM (inactive) | 21.8 µM (inactive) | 3.48 µM (inactive) | 17.2 µM (inactive) | 18.8 µM (inactive) | 20.2 µM (inactive) | 15.3 µM (inactive) | 18 µM (inactive) | 15.6 µM (inactive) | 17.8 µM (inactive) | 17.6 µM (inactive) | 18.3 µM (inactive) | – | –
O=C1C(Cl)C2(CC(/C=C/c3ccccc3)=NN2c2cccc(S(=O)(=O)O)c2)N1c1nc2ccccc2s1 (stereo unspecified) | 8.55 µM (inactive) | 11.7 µM (inactive) | 21.1 µM (inactive) | 30.9 µM (inactive) | 12.4 µM (inactive) | 28.8 µM (inactive) | 11.9 µM (inactive) | 21.4 µM (inactive) | 16.7 µM (inactive) | 14 µM (inactive) | 15.3 µM (inactive) | 16.9 µM (inactive) | – | 16.6 µM (inactive) | 13.2 µM (inactive) | 18.1 µM (inactive) | – | 4.32 µM (inactive) | 17.8 µM (inactive) | 16.4 µM (inactive)
COCc1cc2c(cc1/C(=C/[N+](=O)[O-])CS(=O)(=O)c1ccccc1)OCO2 | > 100 µM (inactive) | > 100 µM (inactive) | > 100 µM (inactive) | > 100 µM (inactive) | > 100 µM (inactive) | > 100 µM (inactive) | > 100 µM (inactive) | > 100 µM (inactive) | > 100 µM (inactive) | > 100 µM (inactive) | > 100 µM (inactive) | > 100 µM (inactive) | > 100 µM (inactive) | > 100 µM (inactive) | > 100 µM (inactive) | > 100 µM (inactive) | > 100 µM (inactive) | > 100 µM (inactive) | > 100 µM (inactive) | –
O=c1c(-c2ccc(Cl)cc2)nnc2n(Cc3ccccc3)c3ccccc3n12 | 18.7 µM (inactive) | 14.7 µM (inactive) | 50.5 µM (inactive) | 24 µM (inactive) | > 100 µM (inactive) | > 100 µM (inactive) | 45.3 µM (inactive) | – | 60.7 µM (inactive) | – | 13.6 µM (inactive) | 20.6 µM (inactive) | – | 21.7 µM (inactive) | 37 µM (inactive) | 48.9 µM (inactive) | 19.1 µM (inactive) | 44.4 µM (inactive) | 51.3 µM (inactive) | 5.94 µM (inactive)
